{"source": "patent US9126945B2", "about": "“N-(3-carbamoylphenly)-1H-pyrazole-5-carboxamide derivatives and the use thereof for controlling animal pests” (BAYER INTELLECTUAL PROPERTY GMBH, priority 2011, dated 2015)", "key": {"Tetranychus urticae [1]": {"system": "Tetranychus urticae", "experiment": "Tetranychus test, OP-resistant (TETRUR spray treatment), bean leaf discs", "format": "in vivo", "settings": "application rate 500 g/ha; after 6 days", "experimental": "Tetranychus Test, OP-Resistant (TETRUR Spray Treatment)\nAfter a time of 6 days, the efficacy in % is determined."}, "Tetranychus urticae [2]": {"system": "Tetranychus urticae", "experiment": "Tetranychus urticae spray test, OP-resistant (TETRUR), bean plants, ppm", "format": "in vivo", "settings": "168 h, 7 dat", "source_text": "Tetranychus urticae Spray Test, OP-Resistant (TETRUR)\n(§1) Solvent: 7 parts by weight of dimethylformamide\n(§2) Emulsifier: 2 parts by weight of alkylaryl polyglycol ether\n(§3) If the addition of ammonium salts or/and penetrants is required, these are in each case added in a concentration of 1000 ppm to the solution of the preparation."}, "Musca domestica": {"system": "Musca domestica", "experiment": "Musca domestica test (MUSCDO)", "format": "in vivo", "experimental": "Musca domestica Test (MUSCDO)\n(§4) Solvent: dimethyl sulphoxide\nVessels containing a sponge treated with the active compound preparation of the desired concentration are populated with adult Musca domestica.\nAfter 2 days, the kill in % is determined.\nVessels containing a sponge treated with the active compound formulation of the desired concentration are populated with adult Musca domestica.\nAfter the desired period of time, the kill in % is determined."}, "Spodoptera frugiperda [3]": {"system": "Spodoptera frugiperda", "experiment": "Spodoptera frugiperda test (SPODFR spray treatment), maize leaf discs", "format": "in vivo", "source_text": "Spodoptera frugiperda Test (SPODFR Spray Treatment)"}, "Ctenocephalides felis": {"system": "Ctenocephalides felis", "experiment": "Ctenocephalides felis oral (CTECFE)", "format": "in vivo", "experimental": "Ctenocephalides felis Oral (CTECFE)\nSolvent: 1 part by weight of dimethyl sulphoxide\nFor the purpose of producing a suitable preparation of active compound, 10 mg of active compound are mixed with 0.5 ml of dimethyl sulphoxide. A portion of the concentrate is diluted with citrated cattle blood, and the desired concentration is prepared.\n(§5) About 20 unfed adult fleas (Ctenocephalides felis) are placed into a chamber which is closed at the top and bottom with gauze. A metal cylinder whose bottom end is closed with parafilm is placed onto the chamber. The cylinder contains the blood/active compound preparation, which can be taken up by the fleas through the parafilm membrane. After 2 days, the kill in % is determined.\nFor the purpose of preparing an appropriate active compound formulation, 10 mg of active compound are mixed with 0.5 ml of dimethyl sulphoxide. A portion of the concentrate is diluted with citrated cattle blood, and the desired concentration is prepared.\nas §5, with “membrane.” for “membrane. After 2 days, the kill in % is determined.”"}, "Myzus persicae": {"system": "Myzus persicae", "experiment": "Myzus test (MYZUPE spray treatment)", "format": "in vivo", "experimental": "Myzus test (Myzupe spray treatment)\nAfter 6 days, the efficacy in % is determined.\nMyzus Test (MYZUPE Spray Treatment)"}, "Amblyomma hebraeum": {"system": "Amblyomma hebraeum", "experiment": "Amblyomma hebaraeum test (AMBYHE)", "format": "in vivo", "settings": "100 ppm; after 42 days", "experimental": "Amblyomma hebaraeum Test (AMBYHE)\nas §4\nTick nymphs (Amblyomma hebraeum) are placed into perforated plastic beakers and immersed in the desired concentration for one minute. The ticks are transferred on filter paper into a Petri dish and stored in a climate-controlled cabinet.\nAfter 42 days, the kill in % is determined."}, "Boophilus microplus": {"system": "Boophilus microplus", "experiment": "Boophilus microplus test (BOOPMI injection)", "format": "in vivo", "settings": "for % Activity dat: BOOPMI injection, 7 dat", "experimental": "Boophilus microplus Test (BOOPMI Injection)\nas §4\nThe active compound solution is injected into the abdomen (Boophilus microplus), and the animals are transferred into dishes and stored in a climate-controlled room. The activity is assessed by laying of fertile eggs.\nThe active compound solution is injected into the abdomen (Boophilus microplus), and the animals are transferred into dishes and stored in a climate-controlled room.\nThe activity is assessed by laying of fertile eggs. 100% means that none of the ticks has laid any fertile eggs."}, "Nilaparvata lugens": {"system": "Nilaparvata lugens", "experiment": "Nilaparvata lugens spray test (NILALU)", "format": "in vivo", "settings": "168 h, 7 dat", "source_text": "Nilaparvata lugens Spray Test (NILALU)\nas §3"}, "Spodoptera frugiperda [4]": {"system": "Spodoptera frugiperda", "experiment": "Spodoptera frugiperda spray test (SPODFR), cotton leaves, ppm", "format": "in vivo", "settings": "168 h, 7 dat", "source_text": "Spodoptera frugiperda Spray Test (SPODFR)\nas §1, §2, §3\nCotton leaves (Gossypium hirsutum) are sprayed with an active compound formulation of the desired concentration and populated with caterpillars of the armyworm (Spodoptera frugiperda)."}, "Plutella xylostella": {"system": "Plutella xylostella", "experiment": "Plutella xylostella spray test (PLUTMA)", "format": "in vivo", "settings": "168 h, 7 dat", "source_text": "Plutella xylostella Spray Test (PLUTMA)\nas §1, §2, §3"}, "[5]": {"system": "Frankliniella occidentalis", "experiment": "Frankliniella occidentalis spray test (FRANOC)", "format": "in vivo", "settings": "168 h, 7 dat", "source_text": "Frankliniella occidentalis Spray Test (FRANOC)\nas §3"}, "[6]": {"experiment": "log P by HPLC, EEC Directive 79/831 Annex V.A8, method a)", "format": "physicochemical", "settings": "reversed-phase C18 HPLC column; cell marked a): HPLC, reversed-phase C18, acetonitrile/water with formic acid, gradient 10% to 95% acetonitrile", "method_in_brief": "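Reversed-phase C18 HPLC (50*4.6, 1.8 micron) per EEC Directive 79/831 Annex V.A8, acetonitrile/water with formic acid, gradient 10% to 95% acetonitrile over 4.25 min then 1.25 min hold; 55° C, 2.0 ml/min, with MS detection.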"}, "Phaedon cochleariae": {"system": "Phaedon cochleariae", "experiment": "Phaedon test (PHAECO spray treatment), Chinese cabbage leaf discs"}, "[7]": {"settings": "application rate 500 g/ha, after 7 days"}, "[8]": {"settings": "Phaedon cochleariae, in Brassica rapa, foliar, 168 h, read-out: % Activity dat"}}}
{"smiles": "Cn1nc(C(F)(F)C(F)(F)F)c(C(F)(F)F)c1C(=O)Nc1ccc(Cl)c(C(=O)NC2(C#N)CC2)c1", "note": "[Example 10]", "values": [{"measurement": "efficacy in %", "setting": "Tetranychus urticae [1]", "value": 90, "unit": "%"}, {"measurement": "inhibition at 4 ppm", "setting": "Tetranychus urticae [2]; 4 ppm", "value": 100, "unit": "%"}, {"measurement": "inhibition at 20 ppm", "setting": "Tetranychus urticae [2]; 20 ppm", "value": 100, "unit": "%"}, {"measurement": "kill in % (efficacy)", "setting": "Musca domestica; 100 ppm, after 2 days", "value": 100, "unit": "%"}, {"measurement": "inhibition at 100 ppm", "setting": "Musca domestica; Musca domestica, 48 h, MUSCDO, 2 dat", "value": 100, "unit": "%"}, {"measurement": "inhibition at 100 g/ha", "setting": "Spodoptera frugiperda [3]; Spodoptera frugiperda, foliar, 168 h, SPODFR, 100 g/ha, 7 dat", "value": 100, "unit": "%"}, {"measurement": "efficacy in %", "setting": "Spodoptera frugiperda [3]; [7]", "value": 100, "unit": "%"}, {"measurement": "kill in % (effect)", "setting": "Ctenocephalides felis; 100 ppm, after 2 days", "value": 100, "unit": "%"}, {"measurement": "inhibition at 0.8 ppm", "setting": "Ctenocephalides felis; Ctenocephalides felis, po, 48 h, CTECFE, 0.8 ppm, 2 dat", "value": 90, "unit": "%"}, {"measurement": "inhibition at 4 ppm", "setting": "Ctenocephalides felis; Ctenocephalides felis, po, 48 h, CTECFE, 4 ppm, 2 dat", "value": 98, "unit": "%"}, {"measurement": "inhibition at 20 ppm", "setting": "Ctenocephalides felis; Ctenocephalides felis, po, 48 h, CTECFE, 20 ppm, 2 dat", "value": 100, "unit": "%"}, {"measurement": "inhibition at 20 g/ha", "setting": "Myzus persicae; Myzus persicae, 144 h, MYZUPE, 20 g/ha, 6 dat", "value": 80, "unit": "%"}, {"measurement": "inhibition at 100 g/ha", "setting": "Myzus persicae; Myzus persicae, 144 h, MYZUPE, 100 g/ha, 6 dat", "value": 100, "unit": "%"}, {"measurement": "inhibition at 500 g/ha", "setting": "Myzus persicae; Myzus persicae, 144 h, MYZUPE, 500 g/ha, 6 dat", "value": 100, "unit": "%"}, {"measurement": "efficacy in %", "setting": "Myzus persicae; application rate 500 g/ha, after 6 days", "value": 100, "unit": "%"}, {"measurement": "kill in % (effect)", "setting": "Amblyomma hebraeum", "value": 100, "unit": "%"}, {"measurement": "efficacy in % (laying of fertile eggs)", "setting": "Boophilus microplus; 20 μg/animal, after 7 days", "value": 100, "unit": "%"}, {"measurement": "% Activity dat", "setting": "Boophilus microplus; 0.16 μg/animal", "value": 80, "unit": "%"}, {"measurement": "% Activity dat", "setting": "Boophilus microplus; 0.8 μg/animal", "value": 100, "unit": "%"}, {"measurement": "inhibition at 100 g/ha", "setting": "Nilaparvata lugens; 100 g/ha", "value": 100, "unit": "%"}, {"measurement": "inhibition at 500 g/ha", "setting": "Nilaparvata lugens; 500 g/ha", "value": 100, "unit": "%"}, {"measurement": "inhibition at 20 ppm", "setting": "Spodoptera frugiperda [4]", "value": 100, "unit": "%"}, {"measurement": "inhibition at 20 ppm", "setting": "Plutella xylostella", "value": 100, "unit": "%"}, {"measurement": "inhibition at 20 g/ha", "setting": "[5]; 20 g/ha", "value": 90, "unit": "%"}, {"measurement": "inhibition at 500 g/ha", "setting": "[5]; 500 g/ha", "value": 100, "unit": "%"}, {"measurement": "chromatographic logP", "setting": "[6]", "value": 3.27}, {"measurement": "inhibition at 20 g/ha", "setting": "Phaedon cochleariae; [8]", "value": 100, "unit": "%"}, {"measurement": "inhibition at 100 g/ha", "setting": "Phaedon cochleariae; [8]", "value": 100, "unit": "%"}, {"measurement": "efficacy in %", "setting": "Phaedon cochleariae; [7]", "value": 100, "unit": "%"}]}
